# Values quoted from earlier work, collected in patent US9610269B2, “Method of treating a disease condition susceptible to baclofen therapy” (SUN PHARMA ADVANCED RESEARCH COMPANY LTD., priority 2010, dated 2017).
# Tests used:
# [1] = at the actual pH values
# [2] = in vivo
structure (smiles),measurement,setting,value
"NCC(CC(=O)O)c1ccc(Cl)cc1 (stereo not shown) [baclofen, 4-amino-3-(p-chlorophenyl) butyric acid]",lipophilicity of the drug,[1],negligible
same,Plasma elimination half-life,[2],approximately 3.5 hours
same,fraction metabolized in the liver,[2],15%
same,serum concentration considered an effective concentration,[2],≥ 80 ng/mL
